Target: T1, collagenase obtained from a culture of human synovial fibroblasts (Homo sapiens, UniProt P03956)
T1 construct: endogenous in cells; host or cells: human synovial fibroblasts in culture (conditioned medium)
T1 sequence (P03956 100-469): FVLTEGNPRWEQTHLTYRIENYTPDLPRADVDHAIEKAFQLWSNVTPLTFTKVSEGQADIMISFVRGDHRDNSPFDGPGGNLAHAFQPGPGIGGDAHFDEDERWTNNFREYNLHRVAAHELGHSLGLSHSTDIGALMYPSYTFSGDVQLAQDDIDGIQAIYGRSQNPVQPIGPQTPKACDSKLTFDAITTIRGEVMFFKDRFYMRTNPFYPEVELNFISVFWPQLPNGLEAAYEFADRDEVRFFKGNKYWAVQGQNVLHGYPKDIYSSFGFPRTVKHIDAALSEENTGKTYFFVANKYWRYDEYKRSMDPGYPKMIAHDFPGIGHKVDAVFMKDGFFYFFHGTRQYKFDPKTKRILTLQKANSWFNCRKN
Test: in vitro collagenase inhibiting activity (14C-acetylated collagen type I from rat tail tendons as substrate, microtitre plate assay)
Assay type: biochemical
Settings: trypsin-activated collagenase from human synovial fibroblasts; 14C-acetylated collagen type I (rat tail tendons) substrate; concentration reducing substrate cleavage and solubilization to 50% of enzyme alone
Protocol: As mentioned earlier, the compounds of formula I and their pharmaceutically acceptable salts are collagenase inhibitors. […] Collagenase activity was measured using ^14 C-acetylated collagen type I from rat tail tendons as the substrate and employing the microtitre plate assay method of Johnson-Wint, B, Anal. Biochem. (1980), 104, 175. The IC50 is that concentration of a compound or salt of the invention in the enzyme digestion which reduces substrate cleavage and solubilization to 50% of that achieved by the enzyme alone.
The results obtained in the foregoing test with representative compounds and salts of the invention are compiled in Table I hereinafter: […]

| SMILES | IC50 |
| --- | --- |
| CC(C)C[C@@H](C(=O)N1CCOCC1)C(CN1C(=O)c2ccccc2C1=O)C(=O)NO (single isomer, unassigned) [Compound A, 4-[2(R)-[1(R or S)-(Hydroxycarbamoyl)-2-phthalimidoethyl]-4-methylvalery]morpholine] | 10 nM |
| CC(C)C[C@@H](C(=O)N1CCSCC1)C(CN1C(=O)c2ccccc2C1=O)C(=O)NO (single isomer, unassigned) [Compound B, 4-[2(R)-[1(R or S)-(Hydroxycarbamoyl)-2-phthalimidoethyl]-4-methylvaleryl]tetrahydro-1,4-thiazine] | 6 nM |
| CC(C)C[C@@H](C(=O)N1CCCCC1)C(Cn1c(=O)n(C)n(C)c1=O)C(=O)NO (single isomer, unassigned) [Compound D, 1-[2(R)-[1(R or S)-(Hydroxycarbamoyl)-2-(1,2-dimethyl-3,5-dioxo-1,2,4-triazolidin-4-yl)ethyl]-4-methylvaleryl]piperidine] | 15 nM |
| CC(C)C[C@@H](C(=O)N1CCC(O)CC1)C(CN1C(=O)c2ccccc2C1=O)C(=O)NO (single isomer, unassigned) [Compound C, 1-[2(R)-[1(R or S)-(Hydroxycarbamoyl)-2-phthalimidoethyl]-4-methylvaleryl]-4-piperidinol] | 5 nM |

More lines, now with the values ahead:

| IC50 | SMILES |
| --- | --- |
| 1.2 nM | CNC(=O)[C@@H]1CCCNN1C(=O)[C@H](CC(C)C)C(CN1C(=O)c2ccccc2C1=O)C(=O)NO (single isomer, unassigned) [Compound F, Hexahydro-2-[2(R)-[1(R or S)-(hydroxycarbamoyl)-2-phthalimidoethyl]-4-methylvaleryl]-N-methyl-3(S)-pyridazinecarboxamide] |
| 7 nM | CC(C)C[C@@H](C(=O)N1CCSCC1)C(CN1C(=O)CN(C)C1=O)C(=O)NO (single isomer, unassigned) [Compound E, 4-[2(R)-[1(R or S)-(Hydroxycarbamoyl)-2-(3-methyl-2,5-dioxo-1-imidazolidinyl)ethyl]-4-methylvaleryl]tetrahydro-1,4-thiazine] |
| 6.9 nM | CC(C)C[C@@H](C(=O)N1CCC(O)CC1)C(CN1C(=O)N(C)C(C)(C)C1=O)C(=O)NO (single isomer, unassigned) [Compound G, 1-[2(R)-[1(R or S)-(Hydroxycarbamoyl)-2-(3,4,4-trimethyl-2,5-dioxo-1-imidazolidinyl)ethyl]-4-methylvaleryl]-4-piperidinol] |

— patent publication US5318964A, “Hydroxamic derivatives and pharmaceutical compositions” (Hoffmann-La Roche Inc., priority 1992, dated 1994)
